Results reported in US11104670B2, “4-pyrimidin-5-ylmethyl-morpholine derivatives and the use thereof as medicament” (Boehringer Ingelheim International GmbH, priority 2018, dated 2021).

Experiments:
[1] = molecular target: Nav1.6 channel (Homo sapiens (Human), UniProt Q9UQD0); assay: Nav1.6 inhibition, IonWorks Quattro electrophysiology; type: cell-based; settings: for inhibition at 1 µM / inhibition at 5 µM: normalized to vehicle (0%) and maximal inhibition control (100%)
Description: Ion Works Quattro electrophysiological platform
The compounds were prepared in DMSO at 300× the final assay concentrations of 1 and 5 μM.
The 300× DMSO stock solutions were transferred into assay plates where 2 μl per well of each 300× stock solution were placed. All assay plates were stored at −80° C. until the day of assay.
On the day of the assay, the appropriate assay plate was thawed at room temperature, centrifuged, and 198 μl of external recording solution was added and mixed thoroughly. This provided a 1:100 dilution. A further 1:3 dilution occurred upon addition to the cells in the IonWorks Quattro electrophysiological platform, giving a 1:300 dilution in total.
On each assay plate, at least 8 wells were reserved for vehicle control (0.3% DMSO) and at least 8 wells for each positive control specific to the cell line tested. The positive controls were tested at a maximal blocking and an approximate IC50 concentration. As positive control Lidocaine at concentrations of 30 and 1000 μM was used.
Amphotericin B was used to obtain electrical access to the cell interior at a final concentration of 200 μg/ml in internal recording solution.
State-dependent inhibition: Sodium channels when held at depolarized potential or long test pulse, the channels open and inactivate and then stay inactivated until the membrane potential is stepped back to hyperpolarized potentials, when the inactivated channels recover from inactivation into closed state.
Cells were held at −120 mV. In order to completely inactivate the sodium channels (pulse 1), the cells were pulsed to +0 mV for 2500 ms and stepped back to −120 mV for 10 ms (to completely recover from inactivation, however channels that had drugs bound to them will not recover from inactivation) before stepping to +0 mV for 20 ms (pulse 2).
Both the positive and vehicle control data associated with each cell line assayed are shown below as an example. The mean is shown for each positive and negative control as solid symbol with the total number of individual well replicates given next to the solid symbol. In addition, the individual data of each well are shown on the graph as open symbols so that the variation about the mean value can be readily assessed.
In FIG. 2, a Post/Pre value of 1.0 corresponds to 0% inhibition, a Post/Pre value of 0.0 corresponds to 100% inhibition.
Tables 3 and 4 show the normalized percentage inhibition of Nav1.6 channel. […] (see also the figure Assay Control Results above).

[2] = Metabolic stability in pooled human liver microsomes; type: in vitro ADME; settings: pH 7.6, 1 μM compound, 1 mg/mL microsomal protein, 37° C., NADPH, read-out: Half-life - t½ human liver microsomes
From the text: Stability in human liver microsomes refers to the susceptibility of compounds to biotransformation in the context of selecting and/or designing drugs with favorable pharmacokinetic properties. The primary site of metabolism for many drugs is the liver. Human liver microsomes contain the cytochrome P450s (CYPs), and thus represent a model system for studying drug metabolism in vitro. Enhanced stability in human liver microsomes is associated with several advantages, including increased bioavailability and adequate half-life, which can enable lower and less frequent dosing of patients. Thus, enhanced stability in human liver microsomes is a favorable characteristic for compounds that are to be used for drugs.
The metabolic degradation of the test compound was assayed at 37° C. with pooled human liver microsomes. The final incubation volume of 60 μl per time point contains TRIS buffer pH 7.6 at room temperature (0.1 M), magnesium chloride (5 mM aqueous solution), microsomal protein (1 mg/mL for human) and the test compound at a final concentration of 1 μM. Following a short preincubation period at 37° C., the reactions were initiated by addition of betanicotinamide adenine dinucleotide phosphate, reduced form (NADPH, 1 mM), and terminated by transferring an aliquot into acetonitril after different time points. After centrifugation (10000 g, 5 min), an aliquot of the supernatant was assayed by HPLC-MS/MS as described above for the MDCK assay P-gp for the amount of parent compound. The half-life was determined by the slope of the semi-logarithmic plot of the concentration-time profile.

Nav1.6 channel, sequence (Q9UQD0 whole entry): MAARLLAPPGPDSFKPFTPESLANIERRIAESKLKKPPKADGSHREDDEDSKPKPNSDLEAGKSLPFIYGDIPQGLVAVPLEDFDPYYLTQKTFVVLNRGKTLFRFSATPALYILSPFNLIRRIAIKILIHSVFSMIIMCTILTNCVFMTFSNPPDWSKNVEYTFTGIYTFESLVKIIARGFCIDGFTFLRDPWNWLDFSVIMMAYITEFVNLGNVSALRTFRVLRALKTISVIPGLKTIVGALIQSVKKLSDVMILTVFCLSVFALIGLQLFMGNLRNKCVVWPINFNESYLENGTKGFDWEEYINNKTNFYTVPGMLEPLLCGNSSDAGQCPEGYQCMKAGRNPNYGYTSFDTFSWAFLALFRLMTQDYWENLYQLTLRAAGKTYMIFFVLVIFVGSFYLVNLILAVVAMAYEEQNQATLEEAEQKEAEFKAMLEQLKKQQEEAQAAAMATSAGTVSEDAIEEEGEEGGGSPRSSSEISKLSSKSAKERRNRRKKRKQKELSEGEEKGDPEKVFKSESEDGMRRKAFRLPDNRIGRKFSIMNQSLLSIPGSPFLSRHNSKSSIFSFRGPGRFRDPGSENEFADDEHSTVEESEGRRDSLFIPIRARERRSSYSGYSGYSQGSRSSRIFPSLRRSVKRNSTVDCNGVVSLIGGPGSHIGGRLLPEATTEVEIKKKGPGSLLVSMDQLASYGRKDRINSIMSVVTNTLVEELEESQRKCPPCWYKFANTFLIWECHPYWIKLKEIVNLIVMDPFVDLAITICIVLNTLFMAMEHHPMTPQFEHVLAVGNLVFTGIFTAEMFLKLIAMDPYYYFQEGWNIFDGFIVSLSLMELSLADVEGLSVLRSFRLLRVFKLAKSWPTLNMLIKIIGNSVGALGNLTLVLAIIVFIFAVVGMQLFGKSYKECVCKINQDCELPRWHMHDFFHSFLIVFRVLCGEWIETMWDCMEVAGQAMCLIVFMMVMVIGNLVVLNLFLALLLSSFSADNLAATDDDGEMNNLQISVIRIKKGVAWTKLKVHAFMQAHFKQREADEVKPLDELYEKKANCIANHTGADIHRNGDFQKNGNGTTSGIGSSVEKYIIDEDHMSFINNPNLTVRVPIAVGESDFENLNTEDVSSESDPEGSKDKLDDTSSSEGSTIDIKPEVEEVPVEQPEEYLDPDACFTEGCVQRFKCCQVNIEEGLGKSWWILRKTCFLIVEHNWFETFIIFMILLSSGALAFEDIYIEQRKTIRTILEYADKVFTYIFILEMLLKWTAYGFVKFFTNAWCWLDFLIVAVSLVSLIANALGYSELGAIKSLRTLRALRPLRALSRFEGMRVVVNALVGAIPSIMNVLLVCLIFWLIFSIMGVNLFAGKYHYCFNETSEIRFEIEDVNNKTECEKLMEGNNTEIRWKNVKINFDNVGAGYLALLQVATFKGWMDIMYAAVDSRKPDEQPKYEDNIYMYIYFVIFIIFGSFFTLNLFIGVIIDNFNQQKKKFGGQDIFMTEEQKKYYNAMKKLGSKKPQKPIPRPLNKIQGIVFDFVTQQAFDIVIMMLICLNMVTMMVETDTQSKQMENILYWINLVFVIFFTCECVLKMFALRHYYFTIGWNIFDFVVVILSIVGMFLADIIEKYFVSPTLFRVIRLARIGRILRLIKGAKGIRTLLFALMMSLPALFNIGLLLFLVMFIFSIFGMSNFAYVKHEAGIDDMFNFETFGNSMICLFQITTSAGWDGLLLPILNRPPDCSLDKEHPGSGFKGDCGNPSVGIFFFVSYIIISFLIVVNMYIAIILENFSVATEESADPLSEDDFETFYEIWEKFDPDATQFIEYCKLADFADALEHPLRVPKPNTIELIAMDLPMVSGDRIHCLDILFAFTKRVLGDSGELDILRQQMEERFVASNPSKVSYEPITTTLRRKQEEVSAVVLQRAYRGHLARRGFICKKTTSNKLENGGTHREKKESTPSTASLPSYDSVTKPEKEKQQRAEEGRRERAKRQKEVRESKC

| Structure (SMILES) | inhibition at 1 µM [1] [%] | inhibition at 5 µM [1] [%] | half-life at 1 µM [2] [h] | inhibition of the Nav 1.6 channel (in words) ([1]; at 5 μM) |
| --- | --- | --- | --- | --- |
| CNC(=O)[C@@H]1CN(Cc2cnc(Oc3ccc(F)cc3C)nc2)CCO1 [Example 21] | 1.3 | 3.6 | > 2.17 |  |
| CNC(=O)[C@@H]1CN(Cc2cnc(Oc3ccc(C)cc3C)nc2)CCO1 [Example 22] | 3.8 | -10.4 | > 2.17 |  |
| CNC(=O)[C@@H]1CN(Cc2cnc(Oc3ccc(Cl)cc3F)nc2)CCO1 [Example 24] | 5.8 | -3.7 | > 2.17 |  |
| CNC(=O)[C@@H]1CN(Cc2cnc(Oc3ccc(Cl)cc3)nc2)CCO1 [Example 25] | -11.8 | -18.8 | > 2.17 | not showing any significant inhibition |
| CNC(=O)[C@@H]1CN(Cc2cnc(Oc3ccccc3Cl)nc2)CCO1 [Example 26] | 12.8 | 5.7 | > 2.17 |  |
| CNC(=O)[C@@H]1CN(Cc2cnc(Oc3ccccc3F)nc2)CCO1 [Example 27] | -3.1 | 4.3 | > 2.17 |  |

Next, values leading:

| inhibition at 1 µM [1] [%] | inhibition at 5 µM [1] [%] | half-life at 1 µM [2] [h] | inhibition of the Nav 1.6 channel (in words) ([1]; at 5 μM) | Structure (SMILES) |
| --- | --- | --- | --- | --- |
| -8.9 | -10.1 | > 2.17 |  | CNC(=O)[C@@H]1CN(Cc2cnc(Oc3ccc(C)cc3F)nc2)CCO1 [Example 20] |
| 0.1 | 2.9 | > 2.17 |  | CNC(=O)[C@@H]1CN(Cc2cnc(Oc3ccc(F)cc3F)nc2)CCO1 [Example 23] |
| -6.2 | -14.6 | > 2.17 |  | CNC(=O)[C@@H]1CN(Cc2cnc(Oc3ccc(C)cc3)nc2)CCO1 [Example 28] |
| -7.7 | -13.5 | > 2.17 |  | CNC(=O)[C@@H]1CN(Cc2cnc(Oc3ccc(F)cc3)nc2)CCO1 [Example 32] |
